According to paper PMC4094517, “Structural Analysis and Mutant Growth Properties Reveal Distinctive Enzymatic and Cellular Roles for the Three Major L-Alanine Transaminases of Escherichia coli” (PLoS ONE, 2014):

B1: His-tagged AlaA (alanine aminotransferase AlaA of Escherichia coli) (enzyme, UniProt P0A959 1-405, looked up)
chain: MSPIEKSSKLENVCYDIRGPVLKEAKRLEEEGNKVLKLNIGNPAPFGFDAPDEILVDVIRNLPTAQGYCDSKGLYSARKAIMQHYQARGMRDVTVEDIYIGNGVSELIVQAMQALLNSGDEMLVPAPDYPLWTAAVSLSSGKAVHYLCDESSDWFPDLDDIRAKITPRTRGIVIINPNNPTGAVYSKELLMEIVEIARQHNLIIFADEIYDKILYDDAEHHSIAPLAPDLLTITFNGLSKTYRVAGFRQGWMVLNGPKKHAKGYIEGLEMLASMRLCANVPAQHAIQTALGGYQSISEFITPGGRLYEQRNRAWELINDIPGVSCVKPRGALYMFPKIDAKRFNIHDDQKMVLDFLLQEKVLLVQGTAFNWPWPDHFRIVTLPRVDDIELSLSKFARFLSGYHQL
modifications: Lys240 in Schiff base linkage with pyridoxal 5'-phosphate (LLP, Lys-PLP)
notes: AlaA, alanine aminotransferase (glutamic-pyruvic transaminase), Escherichia coli, 405-amino-acid monomer; alaA amplified from E. coli XL1-Blue genomic DNA into pETM11; pETM11 adds an N-terminal hexahistidine tag and a TEV protease cleavage site; Modelled residues 1-404 (chain A) and 2-405 (chain B); also called full-length AlaA; His6-AcTev-AlaA; source: E. coli BL21(DE3), purified (HisTrap, …)

Experiments:
AlaA = target: T1, AlaA (Escherichia coli, UniProt P0A959); assay: X-ray crystal structure, […] Å; assay type: binding; conditions: covalent (internal aldimine, Schiff base with Lys240); acetate from crystallisation solution also in active site; crystals in 0.25 M lithium acetate, 22% PEG 3350, 20 °C
T1 construct: full length, 405 residues, N-terminal His6-TEV tag kept (pETM11, pAlaA), expressed in E. coli BL21(DE3), homodimer about 90 kDa

[1] = target: the molecule itself; assay: SEC; Superdex 200 10/300 GL after HisTrap, 4°C; elution mass estimated

| Molecule | X-ray crystal structure, 2.11 Å (AlaA) | stoichiometry N [1] |
| --- | --- | --- |
| Cc1ncc(COP(=O)(O)O)c(C=O)c1O [PLP] | An intact Schiff base linkage between Lys240 and PLP | – |
| B1 | – | 2 |
